Each structure is given as a SMILES string.

Assay type in all cases: in vivo, human
The nature of data set [1]: Knee extension exercise at 80% maximum weight after creatine supplementation. Particulars: at end of supplementation, 20 g once per day with 1000 ml water; usual 6 extensions (control). An excerpt:
(§1) At the end on day 5, the subject was able to perform 8 knee extensions at 80% maximum weight (200 lbs.). This was 2 more than their usual 6 extensions with this weight (control). So, creatine supplementation with creatine monohydrate improved the subject's physical performance though with gastrointestinal side effects.
(§2) After a washout period of 14 days, where the subject ingested no creatine supplements, they began a second period of creatine supplementation with 20 g creatine carbonate, also taken once per day with 1000 ml water. […] At the end of the creatine supplementation with creatine carbonate, the subject again evaluated the effect of creatine supplementation with knee extension exercises at 80% maximum weight (200 lbs.). They performed 10 extensions, which was better than either the control or after 5 days of creatine monohydrate supplementation.

A short description of data set [2]: Gastrointestinal tolerability after oral creatine supplementation in a subject. As to conditions: for gastrointestinal side effects: 20 g once per day with 1000 ml of water, monohydrate for 5 consecutive days, carbonate after 14 days washout. As to the method: A subject, trained, was administered 5 g creatine carbonate and monitored for any gastrointestinal tract symptoms. […] In contrast, the subject would develop a bloated stomach with creatine supplements currently on the market.
as §1, §2

A short description of data set [3]: Blood lactate after treadmill exercise (Heartscare C1 lactate monitoring system). Particulars: person; treadmill 5 miles per hour for 10 minutes, 60 minutes after ingesting 10 g; without supplement 8.1 mmol/L. As for the experimental part: A recreationally active person used the treadmill at 5 miles per hour for 10 minutes and measured their lactate levels using a Heartscare C1 lactate monitoring system. Their blood lactate measured at 8.1 mmol/L. After a two-day washout period, they repeated the same treadmill exercise 60 minutes after ingesting 10 g creatine carbonate. Their blood lactate measured at 7.1 mmol/L. Thus, even without creatine loading, creatine carbonate can reduce lactate production from exercise, as measured by blood lactate level.

Regarding `CN(CC(=O)O)C(=N)N.O` [creatine monohydrate, reference compound], the “knee extensions performed at 80% maximum weight (200 lbs.)” value in data set [1] amounted to 8. Besides, the gastrointestinal side effects result in data set [2] is “gastrointestinal disturbances, such as diarrhea and stomach bloating, occurred”.

As to `CN(CC(=O)O)C(=N)N.O=C(O)O` [creatine carbonate], the “knee extensions performed at 80% maximum weight (200 lbs.)” value in data set [1] is reported as 10. Also, the blood lactate in data set [3] is given as 7.1 mmol/L. Besides, in data set [2], the gastrointestinal side effects result was “Besides light belching, no other gastrointestinal side effects were noted”. Moreover, the gastrointestinal tract symptoms result in data set [2] (subject, trained, 5 g administered) was “did not experience any unwanted gastrointestinal tract issues except a little belching”. In data set [2] (up to 20 grams orally administered to subjects), the “onset of gastrointestinal distress” value is given as “without onset of gastrointestinal distress”.
